According to US9340559B2, “Proteasome inhibitor delanzomib for use in the treatment of lupus” (Cephalon, Inc., priority 2011, dated 2016):
Like-named read-outs stand apart in the source and are kept apart here.

What was measured:
NZM mice [1] = assay: Splenomegaly (spleen mass), NZM mice (Example 2); format: in vivo, mouse
MRL/lpr mice [2] = assay: Luminex analysis of serum cytokines (IL-12p40/p70, IL-1β, TNFα), MRL/lpr mice; format: in vivo, mouse
Protocol: For the processing of serum samples for cytokine analysis, frozen plasma at −80° C. is thawed on ice, vortexed, and centrifuged for 10 minutes to remove debris and aggregates. A total of 25-50 μL of serum is used for Luminex® assays following the manufacturer's instructions. Ten different mouse cytokines are measured using the mouse cytokine 10-plex bead kit (Invitrogen, Carlsbad, Calif., no. LMC0001). Briefly, filter plates (Millipore, Billerica, Mass., no. MAIPSWU10), are pre-wet with 200 μL of wash solution (kit component) and 25 μL of beads are added per well. Serum samples are diluted and a total volume of 50 μL is added per well (ie, 25 μL of sample serum plus 25 μL of assay diluent as provided by the manufacturer). Plates with beads are incubated for 2 hours at room temperature (RT) on an orbital shaker in the dark. At the end of the incubation, plate(s) are washed twice in kit buffer, secondary biotinylated antibody is added at a 1:10 dilution (100 μL) in biotin diluent provided with the kit. Plates are incubated at RT for 1 hour in the dark then washed twice in kit buffer. Strepavidin in assay diluent is added at 100 μL per well, then incubated for 30 minutes at RT in the dark. The plates are washed 3 times then 100 μL of kit wash solution is added and agitated for 2-3 minutes at RT in the dark. Plates are run immediately following this incubation period on a Luminex xMAP 200 unit with data acquisition and analysis software (Invitrogen, San Diego, Calif., no. MAP0200). All bead washing is performed using a vacuum manifold unit (Pall, Ann Arbor, Mich. no. 5017). For all cytokine Luminex assays, values below the limit of detection set by the lowest point along the standard or set by the manufacturer are considered out of range and are not estimated, but assumed the lowest point along the standard curve for that particular assay.
(§1) Mice are tracked on an individual basis.
(§2) Vehicle alone is provided orally twice weekly (p.o.). Both proteasome inhibitors are suspended in the vehicle solution. […] In addition, urine proteinuria is determined for all animals.
(§3) Vehicle was 3% DMSO/10% Solutol/87% PBS.

MRL/lpr mice [3] = assay: Antinuclear antibody (ANA) ELISA (anti-chromatin, anti-Smith Ag, anti-dsDNA IgG), serum of MRL/lpr mice; format: in vivo, mouse
Description: For all ANA ELISA assays, values below the limit of detection set by the lowest point along the standard or set by the manufacturer are considered out of range and are not estimated, but assumed the lowest point along the standard curve for that particular assay.

MRL/lpr mice [4] = assay: Lymphomegaly (enlarged lymph nodes), MRL/lpr mice; format: in vivo, mouse
Protocol: FIG. 4 depicts lymphomegaly for MRL/lpr mice across treatment groups for the study duration. MRL/lpr mice were treated as outlined in the legend. Lymphomegaly or presence of enlarged lymph nodes were observed weekly and noted.
as §1, §2, §3

MRL/lpr mice [5] = assay: Spleen plasma cells by flow cytometry, MRL/lpr mice
MRL/lpr mice [6] = assay: Splenomegaly (spleen mass), MRL/lpr mice; format: in vivo, mouse
Protocol: FIG. 5 depicts splenomegaly for MRL/lpr mice across treatment groups for the study duration. MRL/lpr mice were treated as outlined in the legend. The spleen masses for all mice that survived until the end of the experiment are graphed. Each symbol represents the spleen weight for one mouse at 25 weeks of age.
as §1, §2, §3

NZM mice [7] = format: in vivo, mouse
NZM mice [8] = assay: Antinuclear antibody (ANA) ELISA (anti-chromatin, anti-Smith Ag, anti-dsDNA), serum of NZM mice (Example 2); format: in vivo, mouse
NZM mice [9] = assay: Survival, NZM lupus nephritis model, ip dosing (Example 2); format: in vivo, mouse
NZM mice [10] = assay: Serum C3 complement ELISA, NZM mice (Example 2)
NZM mice [11] = assay: Body weight progression, NZM mice (Example 2); format: in vivo, mouse

CC(C)C[C@H](NC(=O)[C@H](Cc1ccccc1)NC(=O)c1cnccn1)B(O)O [bortezomib, reference compound]
Spleen mass EOS, percent change vs vehicle (NZM mice [1]; G3 0.3 mg/kg ip, 1× wk): +14%
Spleen mass EOS, percent change vs vehicle (NZM mice [1]; G4 0.3 mg/kg ip, 2× wk): −19%
Cytokine AUC serum IL-1β, percent change vs vehicle (MRL/lpr mice [2]; G4: 0.5 mg/kg iv, 1× wk): −46%
Cytokine AUC serum IL-12, percent change vs vehicle (MRL/lpr mice [2]; G4: 0.5 mg/kg iv, 1× wk): −54%
Cytokine AUC serum TNFα, percent change vs vehicle (MRL/lpr mice [2]; G4: 0.5 mg/kg iv, 1× wk): −64%
Cytokine AUC serum IL-1β, percent change vs vehicle (MRL/lpr mice [2]; G5: 0.3 mg/kg iv, 2× wk): −51%
Cytokine AUC serum IL-12, percent change vs vehicle (MRL/lpr mice [2]; G5: 0.3 mg/kg iv, 2× wk): −54%
Cytokine AUC serum TNFα, percent change vs vehicle (MRL/lpr mice [2]; G5: 0.3 mg/kg iv, 2× wk): −71%
ANA AUC Smith Ag, percent change vs vehicle (MRL/lpr mice [3]; G4: 0.5 mg/kg iv, 1× wk): −84%
ANA AUC chromatin, percent change vs vehicle (MRL/lpr mice [3]; G4: 0.5 mg/kg iv, 1× wk): −82%
ANA AUC dsDNA, percent change vs vehicle (MRL/lpr mice [3]; G4: 0.5 mg/kg iv, 1× wk): −88%
ANA AUC Smith Ag, percent change vs vehicle (MRL/lpr mice [3]; G5: 0.3 mg/kg iv, 2× wk): −58%
ANA AUC chromatin, percent change vs vehicle (MRL/lpr mice [3]; G5: 0.3 mg/kg iv, 2× wk): −58%
ANA AUC dsDNA, percent change vs vehicle (MRL/lpr mice [3]; G5: 0.3 mg/kg iv, 2× wk): −76%
anti-Smith Ag IgG ANA level decrease vs vehicle at EOS (MRL/lpr mice [3]; Group 4): 74%
anti-dsDNA IgG ANA decrease vs vehicle (MRL/lpr mice [3]; Group 4 (iv)): 82%
anti-dsDNA IgG ANA decrease vs vehicle (MRL/lpr mice [3]; Group 5 (iv)): 58%
anti-chromatin IgG level decrease vs vehicle (MRL/lpr mice [3]; weekly bortezomib dose): 64%
AUC lymphomegaly, percent of non enlarged lymph nodes relative to vehicle (MRL/lpr mice [4]; G4: 0.5 mg/kg iv, 1× wk): 13%
AUC lymphomegaly, percent of non enlarged lymph nodes relative to vehicle (MRL/lpr mice [4]; G5: 0.3 mg/kg iv, 2× wk): 21%
effect on lymphomegaly (MRL/lpr mice [4]; bortezomib treatment groups): did not significantly reduce lymphomegaly
EOS plasma cells, percent change vs vehicle (MRL/lpr mice [5]; G4: 0.5 mg/kg iv, 1× wk): −67%
EOS plasma cells, percent change vs vehicle (MRL/lpr mice [5]; G5: 0.3 mg/kg iv, 2× wk): −33%
spleen plasma cells decrease vs vehicle (MRL/lpr mice [5]; Group 4): 66%
spleen plasma cells decrease vs vehicle (MRL/lpr mice [5]; Group 5): 33%
EOS spleen mass, percent change vs vehicle (MRL/lpr mice [6]; G4: 0.5 mg/kg iv, 1× wk): −68%
EOS spleen mass, percent change vs vehicle (MRL/lpr mice [6]; G5: 0.3 mg/kg iv, 2× wk): −44%
Cytokine IL-12 AUC, percent change vs vehicle (NZM mice [7]; G3 0.3 mg/kg ip, 1× wk): −32%
Cytokine IL-13 AUC, percent change vs vehicle (NZM mice [7]; G3 0.3 mg/kg ip, 1× wk): −66%
Cytokine IL-17A AUC, percent change vs vehicle (NZM mice [7]; G3 0.3 mg/kg ip, 1× wk): −73%
Cytokine IP-10 AUC, percent change vs vehicle (NZM mice [7]; G3 0.3 mg/kg ip, 1× wk): −50%
Cytokine MIG AUC, percent change vs vehicle (NZM mice [7]; G3 0.3 mg/kg ip, 1× wk): −67%
Cytokine TNFα AUC, percent change vs vehicle (NZM mice [7]; G3 0.3 mg/kg ip, 1× wk): 12%
Cytokine IL-12 AUC, percent change vs vehicle (NZM mice [7]; G4 0.3 mg/kg ip, 2× wk): −55%
Cytokine IL-13 AUC, percent change vs vehicle (NZM mice [7]; G4 0.3 mg/kg ip, 2× wk): −65%
Cytokine IL-17A AUC, percent change vs vehicle (NZM mice [7]; G4 0.3 mg/kg ip, 2× wk): −85%
Cytokine IP-10 AUC, percent change vs vehicle (NZM mice [7]; G4 0.3 mg/kg ip, 2× wk): −59%
Cytokine MIG AUC, percent change vs vehicle (NZM mice [7]; G4 0.3 mg/kg ip, 2× wk): −72%
Cytokine TNFα AUC, percent change vs vehicle (NZM mice [7]; G4 0.3 mg/kg ip, 2× wk): −29%
p, serum IL-12p40/p70 concentration vs G9 Vehicle 1× wk ip (NZM mice [7]; G5 0.3 mg/kg 1× wk ip): NS (NS = not significant (p > 0.05))
p, serum IL-13 concentration vs G9 Vehicle 1× wk ip (NZM mice [7]; G5 0.3 mg/kg 1× wk ip): NS (NS = not significant (p > 0.05))
p, serum IL-17A concentration vs G9 Vehicle 1× wk ip (NZM mice [7]; G5 0.3 mg/kg 1× wk ip): NS (NS = not significant (p > 0.05))
p, serum IP-10 concentration vs G9 Vehicle 1× wk ip (NZM mice [7]; G5 0.3 mg/kg 1× wk ip): p < 0.001
p, serum MIG concentration vs G9 Vehicle 1× wk ip (NZM mice [7]; G5 0.3 mg/kg 1× wk ip): NS (NS = not significant (p > 0.05))
p, serum TNFα concentration vs G9 Vehicle 1× wk ip (NZM mice [7]; G5 0.3 mg/kg 1× wk ip): NS (NS = not significant (p > 0.05))
p, serum IL-12p40/p70 concentration vs G9 Vehicle 1× wk ip (NZM mice [7]; G6 0.3 mg/kg 2× wk ip): p < 0.05
p, serum IL-13 concentration vs G9 Vehicle 1× wk ip (NZM mice [7]; G6 0.3 mg/kg 2× wk ip): NS (NS = not significant (p > 0.05))
p, serum IL-17A concentration vs G9 Vehicle 1× wk ip (NZM mice [7]; G6 0.3 mg/kg 2× wk ip): NS (NS = not significant (p > 0.05))
p, serum IP-10 concentration vs G9 Vehicle 1× wk ip (NZM mice [7]; G6 0.3 mg/kg 2× wk ip): p < 0.001
p, serum MIG concentration vs G9 Vehicle 1× wk ip (NZM mice [7]; G6 0.3 mg/kg 2× wk ip): NS (NS = not significant (p > 0.05))
p, serum TNFα concentration vs G9 Vehicle 1× wk ip (NZM mice [7]; G6 0.3 mg/kg 2× wk ip): NS (NS = not significant (p > 0.05))
serum IL-12 decrease vs vehicle, range over the substance's groups (NZM mice [7]; once and twice weekly groups): 32-55%
serum CXCL9/MIG as compared to CTX (NZM mice [7]; p<0.001 vs CTX, but not to DEX): decreased
IL-13 serum levels compared to vehicle (NZM mice [7]; treatment groups): No significant change
IL-17A serum levels compared to vehicle (NZM mice [7]; treatment groups): No significant change
ANA Smith Ag AUC, percent change vs vehicle (NZM mice [8]; G3 0.3 mg/kg ip, 1× wk): −22%
ANA chromatin AUC, percent change vs vehicle (NZM mice [8]; G3 0.3 mg/kg ip, 1× wk): 113%
ANA dsDNA AUC, percent change vs vehicle (NZM mice [8]; G3 0.3 mg/kg ip, 1× wk): 95%
ANA Smith Ag AUC, percent change vs vehicle (NZM mice [8]; G4 0.3 mg/kg ip, 2× wk): −53%
ANA chromatin AUC, percent change vs vehicle (NZM mice [8]; G4 0.3 mg/kg ip, 2× wk): −22%
ANA dsDNA AUC, percent change vs vehicle (NZM mice [8]; G4 0.3 mg/kg ip, 2× wk): −2%
reduction in anti-chromatin Ab relative to vehicle, significance (NZM mice [8]; bortezomib, Dex or CTX treatment groups): none of which was significant
serum anti-dsDNA Ab increase vs vehicle (NZM mice [8]; once weekly bortezomib): 95%
serum anti-Smith Ag Ab decrease vs vehicle (NZM mice [8]; once weekly bortezomib (0.3 mg/kg ip)): 22%
serum anti-dsDNA Ab decrease vs vehicle (NZM mice [8]; twice weekly bortezomib): 2%
serum anti-chromatin Ab decrease vs vehicle (NZM mice [8]; twice weekly bortezomib (0.3 mg/kg ip)): 22%
EOS survival, percent live mice from original number (NZM mice [9]; G3 0.3 mg/kg ip, 1× wk): 58%
EOS survival, percent live mice from original number (NZM mice [9]; G4 0.3 mg/kg ip, 2× wk): 75%
mice still alive at day 56 (NZM mice [9]; both treatment groups of the substance): 75%
Serum C3 complement AUC, percent change vs vehicle (NZM mice [10]; G3 0.3 mg/kg ip, 1× wk): 8%
Serum C3 complement AUC, percent change vs vehicle (NZM mice [10]; G4 0.3 mg/kg ip, 2× wk): −11%
Body mass AUC, percent change vs vehicle (NZM mice [11]; G3 0.3 mg/kg ip, 1× wk): +13%
Body mass AUC, percent change vs vehicle (NZM mice [11]; G4 0.3 mg/kg ip, 2× wk): +11%
